Results taken from US9194872B2, “Potentiation of nanopharyngeal cancer radiotherapy by inhibitors of leukemia inhibitory factor” (Chang Gung University, priority 2013, dated 2015).

Assays:
[1] = system: TW06 cell transfected with firefly luciferase 2 reporter gene; test: Tumor growth of mouse with intratumoral injection (in vivo imaging system); parameters: species or system NOD/SCID mouse; conditions: twice per week, 4 weeks, LIF 150-200 ng, sLIFR 1-2 μg, compared with PBS, FIGS. 3B, 3C
Procedure: In addition, a TW06 cell transfected with firefly luciferase 2 reporter gene was subcutaneously injected into the thigh of a 7-week-old NOD/SCID (non-obese diabetic/severe-combined immunodeficient) mouse. Until the tumor on the mouse's thigh was grown to a volume of 50 mm^3, PBS, leukemia inhibitory factor (150-200 ng, twice per week, 4 weeks), or a soluble leukemia inhibitory factor receptor (1-2 μg, twice per week, 4 weeks) was intratumorally injected into the mouse. Finally, the mouse's tumor was observed, and its activity and volume were detected by an in vivo imaging system at a certain time point after the injection.

CNE1 cells = test: Resistance of nasopharyngeal cancer cell to radiation in various doses (xCelligence); assay type: cell-based; conditions: LIF 10 ng/ml; for IC50 value of the radiation for the treated cells: FIG. 4B
Procedure: Firstly, 6×10^3 CNE1 cells were seeded. After cultivated at 37° C. overnight, the seeded cells were treated with PBS and leukemia inhibitory factor (10 ng/ml), and then radiation in various doses were emitted to the treated cells. Finally, an xCelligence real time cell analyzer was used to detect the cell growth at a certain time point after this emission.

[2] = system: nasopharyngeal cancer cell; test: Caspase3/7 positive cells after substance treatment and radiation in 4 Gy; assay type: cell-based; conditions: radiation 4 Gy; 96th hour after emission; LIF versus sLIFR treatment; FIG. 4D
[3] = system: TW06 cell transfected with firefly luciferase 2 reporter gene; test: Tumor growth of mouse with intratumoral injection and radiation in 7 Gy; assay type: in vivo, NOD/SCID mouse; conditions: twice per week, 4 weeks, LIF 150-200 ng, sLIFR 1-2 μg, radiation 7 Gy following first injection, FIGS. 5A, 5B
Procedure: A TW06 cell transfected with firefly luciferase 2 reporter gene was subcutaneously injected into the thigh of a 7-week-old NOD/SCID mouse. Until the tumor on the thigh was grown to a volume of 60-100 mm^3, PBS, leukemia inhibitory factor (150-200 ng, twice per week, 4 weeks), or a soluble leukemia inhibitory factor receptor (1-2 μg, twice per week, 4 weeks) was intratumorally injected into the mouse, and then radiation in a dose of 7 Gy were emitted to the mouse following the first injection. Finally, the mouse's tumor was observed, and its activity and volume were detected by an in vivo imaging system at a certain time point after the emission.

TW06 cells = test: Growth of nasopharyngeal cancer cell in vitro (xCelligence real time cell analyzer); assay type: cell-based; conditions: sLIFR 1 μg/ml, LIF 10 ng/ml, compared among PBS, sLIFR plus LIF, FIG. 3A
Procedure: 6×10^3 TW06 cells were seeded, and then cultivated at 37° C. overnight. These cells were treated with PBS, a soluble leukemia inhibitory factor receptor (1 μg/ml), leukemia inhibitory factor (10 ng/ml), or a soluble leukemia inhibitory factor receptor plus leukemia inhibitory factor. After which, an xCelligence real time cell analyzer (Roche Applied Science) was used to detect the cell growth at a certain time point after this treatment.

CNE1 cells or TW06 cells = test: Cell survival after substance treatment and radiation in 4 Gy (xCelligence); assay type: cell-based; conditions: radiation 4 Gy, sLIFR 1 μg/ml, LIF 10 ng/ml, FIG. 4C
Procedure: In another aspect, 6×10^3 CNE1 cells or TW06 cells were seeded, and then cultivated at 37° C. overnight. The cultivated cells were treated with PBS, a soluble leukemia inhibitory factor receptor (1 μg/ml), leukemia inhibitory factor (10 ng/ml), or leukemia inhibitory factor plus a soluble leukemia inhibitory factor receptor. After which, radiation in 4 Gy were emitted to the treated cells. Finally, an xCelligence real time cell analyzer was used to detect the cell survival at a certain time point after this emission.

[4] = system: ATM, p53, γH2AX, NBS1 or CDC25C; test: Western blotting of apoptosis-related and DNA damage-related proteins after radiation in 4 Gy; assay type: cell-based; conditions: TW06 and CNE1 cells; radiation 4 Gy; 10th minute following emission; sLIFR versus LIF; FIGS. 4E, 4F

leukemia inhibitory factor: a cytokine belonging to the interleukin-6 family and mediating cell growth through inhibition of cell differentiation
tumor volume of the mouse [1]: the biggest
IC50 value of the radiation for the treated cells (CNE1 cells; 48th hour after radiation emission (PBS 1.5 Gy)): 3.7 Gy
IC50 value of the radiation for the treated cells (CNE1 cells; 55th hour after radiation emission (PBS 1.3 Gy)): 5.8 Gy
growth of cells with radiation emission (CNE1 cells; radiation in various doses, versus PBS, FIG. 4A): more obvious than that with PBS treatment and radiation emission
Caspase3/7 expression level [2]: low Caspase3/7 expression level
tumor volume of the mouse with radiation emission [3]: the biggest

B1: soluble leukemia inhibitory factor receptor: non-transmembrane protein (soluble receptor) that can bind leukemia inhibitory factor (protein, UniProt P42702 45-833, looked up)
extracellular domain: QKKGAPHDLKCVTNNLQVWNCSWKAPSGTGRGTDYEVCIENRSRSCYQLEKTSIKIPALSHGDYEITINSLHDFGSSTSKFTLNEQNVSLIPDTPEILNLSADFSTSTLYLKWNDRGSVFPHRSNVIWEIKVLRKESMELVKLVTHNTTLNGKDTLHHWSWASDMPLECAIHFVEIRCYIDNLHFSGLEEWSDWSPVKNISWIPDSQTKVFPQDKVILVGSDITFCCVSQEKVLSALIGHTNCPLIHLDGENVAIKIRNISVSASSGTNVVFTTEDNIFGTVIFAGYPPDTPQQLNCETHDLKEIICSWNPGRVTALVGPRATSYTLVESFSGKYVRLKRAEAPTNESYQLLFQMLPNQEIYNFTLNAHNPLGRSQSTILVNITEKVYPHTPTSFKVKDINSTAVKLSWHLPGNFAKINFLCEIEIKKSNSVQEQRNVTIKGVENSSYLVALDKLNPYTLYTFRIRCSTETFWKWSKWSNKKQHLTTEASPSKGPDTWREWSSDGKNLIIYWKPLPINEANGKILSYNVSCSSDEETQSLSEIPDPQHKAEIRLDKNDYIISVVAKNSVGSSPPSKIASMEIPNDDLKIEQVVGMGKGILLTWHYDPNMTCDYVIKWCNSSRSEPCLMDWRKVPSNSTETVIESDEFRPGIRYNFFLYGCRNQGYQLLRSMIGYIEELAPIVAPNFTVEDTSADSILVKWEDIPVEELRGFLRGYLFYFGKGERDTSKMRVLESGRSDIKVKNITDISQKTLRIADLQGKTSYHLVLRAYTDGGVGPEKSMYVVTKENS
modifications: extracellular domain
growth of cells (TW06 cells): the most unobvious
tumor volume of the mouse [1]: the smallest
growth of cells with radiation emission (CNE1 cells or TW06 cells): the most unobvious
activation/phosphorylation of apoptosis-related and DNA damage-related proteins [4]: activated/phosphorylated more strongly
tumor volume of the mouse with radiation emission [3]: the smallest
